pIC50: −log10 of the molar value. Like-named read-outs stand apart in the source and are kept apart here.
How the values were obtained:
[1] = tested on: Porphyromonas gingivalis 381; assay: Antimicrobial screening by colorimetric WST-1 assay against P. gingivalis; type: cell-based; conditions: P. gingivalis 381, FIG. 2, read-out: growth inhibition
Procedure: (§1) The following bacterial strains were used in these studies: Porphyromonas gingivalis 381, Actinomyces naeslundii ATCC 49340, Streptococcus sanguinis ATCC 10556, Veillonella parvula ATCC 10790, Aggregatibacter actinomycetemcomitans JP2, and Fusobacterium nucleatum ATCC 25586. All bacterial strains were initially grown on blood agar plates (BBL, Becton Dickinson, Sparks, Md., USA) from a frozen stock and incubated in appropriate aerobic (for S. sanguinis) or anaerobic (for P. gingivalis, A. naeslundii, V. parvula, A. actinomycetemcomitans, and F. nucleatum) conditions at 37° C. for 24 h or 3 days, respectively. Then, a liquid culture was started for each strain in 3 mL of Brain Hearth infusion (BHI) broth alone or supplemented with 5 μg/mL of hemin and 1 μg/mL of menadione in the case of P. gingivalis. Overnight cultures were inoculated in fresh broth and allowed to reach logarithmic growth for 3-4 h, time at which antimicrobial activity of different treatments was evaluated.
Initial screening for testing the antimicrobial effect of zafirlukast derivatives (4a, 4b, 11a, 11b, 12a, 21a, 21b, 22a, 22b, 23a, and 23b) was performed using the colorimetric water-soluble tetrazolium-1 (WST-1) assay, which serves as a surrogate marker for cell proliferation and viability. Bacterial strains (10^6/well) grown logarithmically in broth (90 μL) using 96-wells plates, were exposed to different treatments for 2 h and then 15 μL of WST-1 reagent (Roche, Manheim, Germany) were added to each well. Plates were incubated for 2 h under appropriate culture conditions and then absorbance was measured at 450 nm, with a reference wavelength of 600 nm, using SpectraMax M2 plate reader (Molecular Devices, Sunnyvale, Calif., USA). The percentage of inhibitory effect (i.e., % growth inhibition) was calculated using the optical densities (ODs) of bacterial metabolic activity, under different experimental conditions according to the following formula: 100×[OD (control)−OD (experimental)/OD (control)]. For P. gingivalis, control cultures were treated only with medium and experimental cultures treated with DMSO (vehicle for zafirlukast and its derivatives) and 1 μg/mL of the antibiotic tetracycline. When tested against A. naeslundii, A. actinomycetemcomitans, S. sanguinis, V. parvula, and F. nucleatum control cultures were treated only with medium and experimental cultures were treated with DMSO (vehicle for zafirlukast and its derivatives), antibiotic penicillin/streptomycin −1× (100 U/mL of penicillin and 100 μg/mL of streptomycin) for Gram-positives and 1 μg/mL of tetracycline for Gram-negative anaerobic bacteria.

[2] = tested on: OKF6 oral epithelial cells (OKF6/hTERT); assay: cells; type: cell-based; conditions: 24 h; for pIC50: Homo sapiens, OKF6; for Dead (%) / Percentage of OKF6 cells alive / Alive (%): human
Procedure: Cytotoxic effect of zafirlukast derivatives in oral epithelial cells. The immortalized oral keratinocyte cell line OKF6/hTERT (OKF6) was used for viability assays in response to zafirlukast derivatives 22b, 23a, and 23b as previously reported. 3, ^4 Cells were cultured in keratinocyte-serum free medium (SFM) supplemented with bovine pituitary extract (25 μg/mL) and recombinant epidermal growth factor (0.2 ng/mL) (Ker-SFM). Cells were maintained at 37° C. in a humidified incubator with 5% CO2.
[…] Cells were then harvested by trypsinization, washed with DMEM medium supplemented with 5% fetal bovine serum at 1100 rpm and resuspended in fresh Ker-SFM. Equal volumes of cell suspension and trypan blue were mixed and 10 μL evaluated in the automated cell counter (Countess II FL) (Life Technologies, Singapure) to determine percentage of alive and death cells. These experiments were performed in two independent experiments by duplicate. […] The IC50 values were calculated by using the Quest Graph™ IC50 calculator (ATT Bioquest, Inc, https://www.aatbio.com/tools/ic50-calculator).

[3] = tested on: OKF6 oral epithelial cells (OKF6/hTERT); assay: Cell viability of oral epithelial cells (apoptosis and necrosis) by flow cytometry, FITC-Annexin V / propidium iodide; type: cell-based, human; conditions: 24 h
Procedure: Cytotoxic effect of zafirlukast derivatives in oral epithelial cells. The immortalized oral keratinocyte cell line OKF6/hTERT (OKF6) was used for viability assays in response to zafirlukast derivatives 22b, 23a, and 23b as previously reported. 3, ^4 Cells were cultured in keratinocyte-serum free medium (SFM) supplemented with bovine pituitary extract (25 μg/mL) and recombinant epidermal growth factor (0.2 ng/mL) (Ker-SFM). Cells were maintained at 37° C. in a humidified incubator with 5% CO2. Cytotoxic effects of zafirlukast derivatives were confirmed by flow cytometry analysis (FACS). After different treatments, attached OKF6 cells were harvested by trypsinization and mixed with cells that were previously rescued from supernatants. Cells were washed with PBS at 1100 rpm for 5 min and further labeled with 5 μL of FITC-Annexin V and 5 μL of propidium iodide (BD Pharmingen, San Jose, Calif.) for 15 min at room temperature. Labeled cells were analyzed by FACS, with at least 10,000 events read at wavelengths averaging 488 nm for excitation and 530 nm for emission in a flow cytometer FACSCalibur (Becton Dickinson, San Jose, Calif.).

[4] = tested on: Porphyromonas gingivalis 381; assay: Bactericidal effect on P. gingivalis by colony forming units (CFU) assay; type: cell-based; conditions: 24 h exposure, 7 days incubation, FIG. 4; for bacteriostatic or bactericidal: 100 μM, CFU
Procedure: as §1
P. gingivalis (10^6/well) grown in appropriate medium and anaerobic conditions was exposed to zafirlukast derivatives dissolved in DMSO for 24 h and further 50 μL of bacterial culture dilutions (1:400) were spread onto blood agar plates. Numbers of CFUs were obtained after 7 days of incubation in appropriate anaerobic conditions.

[5] = 0-100 μM in triplicate, Quest Graph IC50 calculator, read-out: IC50 (OKF6 cell viability)

`COc1cc(C(=O)NS(=O)(=O)c2ccccc2)ccc1Cc1cn(C)c2ccccc12` [Compound 4a] gave an inhibition at 100 µM [1] greater than 60%.
In the case of `COc1cc(C(=O)NS(=O)(=O)c2ccccc2C)ccc1Cc1cn(C)c2ccccc12` [Compound 4b], the inhibition at 100 µM [1] was greater than 60%.
Work on `O=C(NS(=O)(=O)c1ccccc1)c1ccc(Cc2c[nH]c3ccccc23)cc1` [Compound 11a] yielded an inhibition at 10 µM [1] of roughly 40%.
`Cc1ccccc1S(=O)(=O)NC(=O)c1ccc(Cc2c[nH]c3ccccc23)cc1` [Compound 11b] gave an inhibition at 10 µM [1] of roughly 90%.
`Cn1cc(Cc2ccc(C(=O)NS(=O)(=O)c3ccccc3)cc2)c2ccccc21` [Compound 12a] showed an inhibition at 10 µM [1] of 90 to 100%.
`COc1ccc(Cc2c[nH]c3ccccc23)cc1C(=O)NS(=O)(=O)c1ccccc1` [Compound 21a] was tested, and the inhibition at 10 µM [1] was roughly 40%.
`COc1ccc(Cc2c[nH]c3ccccc23)cc1C(=O)NS(=O)(=O)c1ccccc1C` [Compound 21b] showed an inhibition at 10 µM [1] of roughly 80%.
In the case of `COc1ccc(Cc2cn(C)c3ccccc23)cc1C(=O)NS(=O)(=O)c1ccccc1C` [Compound 22b], the pIC50 [2, 5] was 4.80, the “Dead (%)” value ([2]; 1 μM) was 8.5 ± 1.7% and the “Percentage of OKF6 cells alive” value ([2]; 1 μM) was 69.3 ± 9.6%. The “Percentage of OKF6 cells alive” value ([2]; 2.5 μM) was 41.0 ± 1.0%, the “Percentage of OKF6 cells alive” value ([2]; 5 μM) was 66.0 ± 5.6% and the “Alive (%)” value ([2]; 10 μM) was 40.8 ± 16.6%. For the same compound, the “Dead (%)” value ([2]; 10 μM) was 59.3 ± 16.6%, the “Percentage of OKF6 cells alive” value ([2]; 10 μM) was 38.3 ± 4.9% and the “Percentage of OKF6 cells alive” value ([2]; 15 μM) was 41.0 ± 17.3%. The “Percentage of OKF6 cells alive” value ([2]; 20 μM) was 22.7 ± 11.7%, the “Percentage of OKF6 cells alive” value ([2]; 25 μM) was 47.0 ± 20.0% and the “Percentage of OKF6 cells alive” value ([2]; 50 μM) was 33.0 ± 15.1%. For the same compound, the “Percentage of OKF6 cells alive” value ([2]; 100 μM) was 12.3 ± 11.0%, the “Apoptosis (%)” value ([3]; human, 1 μM) was 23.7 ± 16.6% and the “Necrosis (%)” value ([3]; human, 1 μM) was 2.16 ± 1.62%. For the same compound, the Viable ([3]; human, 1 μM) was 74.1 ± 18.1%, the “Apoptosis (%)” value ([3]; human, 10 μM) was 29.6 ± 19.1% and the “Necrosis (%)” value ([3]; human, 10 μM) was 1.37 ± 0.39%. For the same compound, the Viable ([3]; human, 10 μM) was 69.1 ± 18.9%, the inhibition at 1 µM [1] was 15 to 40% and the inhibition at 10 µM [1] was 90 to 100%.
`COc1ccc(Cc2cn(C)c3ccc([N+](=O)[O-])cc23)cc1C(=O)NS(=O)(=O)c1ccccc1` [Compound 23a] was tested, and the bacteriostatic or bactericidal [4] was “bactericidal”, the inhibition at 1 µM ([4]; Porphyromonas gingivalis, 381, 1 μM, read-out: growth inhibition (CFU)) was roughly 60% and the inhibition at 10 µM ([4]; Porphyromonas gingivalis, 381, 10 μM, read-out: growth inhibition (CFU)) was 100%. The pIC50 [2, 5] was 4.27, the “Dead (%)” value ([2]; 1 μM) was 20.5 ± 16.4% and the “Percentage of OKF6 cells alive” value ([2]; 1 μM) was 68.0 ± 5.0%. The “Percentage of OKF6 cells alive” value ([2]; 2.5 μM) was 70.7 ± 10.3%, the “Percentage of OKF6 cells alive” value ([2]; 5 μM) was 55.3 ± 8.1% and the “Alive (%)” value ([2]; 10 μM) was 73.8 ± 4.1%. For the same compound, the “Dead (%)” value ([2]; 10 μM) was 26.3 ± 4.1%, the “Percentage of OKF6 cells alive” value ([2]; 10 μM) was 49.0 ± 16.1% and the “Percentage of OKF6 cells alive” value ([2]; 15 μM) was 50.3 ± 9.5%. For the same compound, the “Percentage of OKF6 cells alive” value ([2]; 20 μM) was 48.0 ± 6.1%, the “Percentage of OKF6 cells alive” value ([2]; 25 μM) was 54.0 ± 7.8% and the “Percentage of OKF6 cells alive” value ([2]; 50 μM) was 45.3 ± 13.1%. For the same compound, the “Percentage of OKF6 cells alive” value ([2]; 100 μM) was 15.7 ± 7.1%, the “Apoptosis (%)” value ([3]; human, 1 μM) was 38.5 ± 27.5% and the “Necrosis (%)” value ([3]; human, 1 μM) was 0.69 ± 0.46%. The Viable ([3]; human, 1 μM) was 60.9 ± 27.4%, the “Apoptosis (%)” value ([3]; human, 10 μM) was 44.2 ± 26.9% and the “Necrosis (%)” value ([3]; human, 10 μM) was 2.81 ± 2.31%. For the same compound, the Viable ([3]; human, 10 μM) was 53.2 ± 29.0%, the inhibition at 1 µM [1] was 15 to 40% and the inhibition at 10 µM [1] was 90 to 100%.
In the case of `COc1ccc(Cc2cn(C)c3ccc([N+](=O)[O-])cc23)cc1C(=O)NS(=O)(=O)c1ccccc1C` [Compound 23b], the bacteriostatic or bactericidal [4] was “bactericidal”, the pIC50 [2, 5] was less than 4.00 and the pIC50 ([2]; estimated beyond the highest concentration tested (100 μM), read-out: IC50 (OKF6 cell viability), estimated) was roughly 3.64. The “Dead (%)” value ([2]; 1 μM) was 17.3 ± 9.5%, the “Percentage of OKF6 cells alive” value ([2]; 1 μM) was 83.7 ± 9.1% and the “Percentage of OKF6 cells alive” value ([2]; 2.5 μM) was 87.7 ± 3.8%. The “Percentage of OKF6 cells alive” value ([2]; 5 μM) was 87.0 ± 2.6%, the “Alive (%)” value ([2]; 10 μM) was 48.3 ± 17.5% and the “Dead (%)” value ([2]; 10 μM) was 51.8 ± 17.5%. The “Percentage of OKF6 cells alive” value ([2]; 10 μM) was 83.0 ± 5.3%, the “Percentage of OKF6 cells alive” value ([2]; 15 μM) was 79.0 ± 5.3% and the “Percentage of OKF6 cells alive” value ([2]; 20 μM) was 75.3 ± 3.8%. For the same compound, the “Percentage of OKF6 cells alive” value ([2]; 25 μM) was 77.0 ± 2.6%, the “Percentage of OKF6 cells alive” value ([2]; 50 μM) was 69.0 ± 7.5% and the “Percentage of OKF6 cells alive” value ([2]; 100 μM) was 58.7 ± 4.2%. For the same compound, the “Apoptosis (%)” value ([3]; human, 1 μM) was 24.8 ± 13.9%, the “Necrosis (%)” value ([3]; human, 1 μM) was 1.08 ± 0.17% and the Viable ([3]; human, 1 μM) was 74.4 ± 13.8%. For the same compound, the “Apoptosis (%)” value ([3]; human, 10 μM) was 35.8 ± 21.3%, the “Necrosis (%)” value ([3]; human, 10 μM) was 2.23 ± 1.18% and the Viable ([3]; human, 10 μM) was 61.7 ± 22.2%. The inhibition at 1 µM [1] was 15 to 40% and the inhibition at 10 µM [1] was 90 to 100%.
With `COc1cc(C(=O)NS(=O)(=O)c2ccccc2C)ccc1Cc1cn(C)c2ccc(NC(=O)OC3CCCC3)cc12` [Zafirlukast, zafirlukast, reference compound] the “Alive (%)” value ([2]; 25 μM) was 17.3 ± 5.2%, the “Dead (%)” value ([2]; 25 μM) was 82.8 ± 5.2% and the “Apoptosis (%)” value ([3]; 25 μM, FACS (Table 3, FIG. 7)) was 90.8 ± 2.5%. The “Necrosis (%)” value ([3]; 25 μM, FACS (Table 3, FIG. 7)) was 0.65 ± 0.58% and the Viable ([3]; 25 μM, FACS (Table 3, FIG. 7)) was 8.53 ± 3.08%.

Reference: patent US11535592B2, “Antimicrobial compounds, compositions, and method” (University of Kentucky Research Foundation, priority 2019, dated 2022)
